Read-outs that look alike come from different tables or passages of the source.
Experiments:
HS578T cells = assay: MTT metabolization, inhibition of HS578T cell proliferation; assay type: cell-based; conditions: Homo sapiens, Hs-578T, read-out: Percentage inhibition Formula (III) mean
Description: These triple negative breast cancer cell lines were obtained from the American Type Culture Collection Cell Biology Collection (ATCC) (Manassas, Va.). The medium was changed every 2 days.
Cell proliferation and growth experiments were carried out using 3-(4,5-dimethylthiazol-2-yl)-2,5-diphenyltetrazolium bromide (MTT) uptake assays, where MTT is reduced to purple formazan by the mitochondria of living cells. Increase in cell number is detected by augmented MTT metabolization, and decrease in cell number is reflected by a decrease. […] The cells were treated with the drug at different concentrations to plot the dose-response curves in all cancer cell lines using in the study. […] After treatment, each well was replaced with 250 μL of fresh medium containing MTT ([…]) and incubated for 1 hour. The medium was then removed and 500 μL of dimethyl sulfoxide was added to each well. The plate was agitated in the dark for 5 minutes to dissolve the MTT-formazan crystals. The absorbance of the samples was recorded at 562 nm in a multi-well plate reader (BMG labtech). Results were plotted as the mean values of quadruplicates from a representative experiment that was repeated at least two independent times.
Combination index values less than 1 indicate synergism, values equal to 1 indicate an additive effect, whereas values greater than 1 indicate antagonism. Combination index values from three independent experiments were generated.

[1] = system: HS578T, BT549 and MDA-MB-231 cells; assay: Three-dimensional growth in matrigel (spherical structures); assay type: cell-based
Description: For three-dimensional cell culture, the bottom of 24 multi-dish plates was covered with a thin ice-cold 4% Matrigel (BD Biosciences) layer and incubated at 37° C. for 20 minutes to allow the Matrigel to solidify. Matrigel was added to conventional DMEM. The desired cells were tripsinized (0.25% trypsin-EDTA solution (2.5 g/L of trypsin, 0.38 g/L of EDTA) collected and resuspended to a final concentration of 12.500 cls/mL in 2% Matrigel. The cell suspension was added over the solidified Matrigel layer and incubated at 37° C. The medium was changed after 4 days and the cell culture was daily visualized under a microscope for phenotype monitoring. The cells were cultured for 10 days.

[2] = system: PI3K/mTOR/AKT and JAK/STAT pathway; assay: Western Blot of PI3K/mTOR/AKT and JAK/STAT pathway components; assay type: cell-based; conditions: 500 nM, up to 24 h
Description: Western-blot and phospho-array kits were used for evaluation of signaling intermediates.
HS578T and BT549 cell lines were grown in DMEM 10% of FBS and at 70% confluence were treated with Formula (III) at 500 nM for 6, 12 and 24 hours. Cells were washed with phosphate-buffered saline (PBS) (137 mM NaCl, 2.7 mM KCl, 8 mM Na2HPO4, 1.5 mM KH2PO4) and lysed in ice-cold lysis buffer (20 mM Tris-HCl [pH 7.0], 140 mM NaCl, 50 mM EDTA, 10% glycerol, 1% Nonidet P-40, 1 μM pepstatin, 1 μg/mL aprotinin, 1 μg/mL leupeptin, 1 mM phenylmethyl sulfonyl fluoride, 1 mM sodium orthovanadate). Lysates were centrifuged at 10000 g at 4° C. for 10 minutes. The protein level in the supernatants was quantified using BCA protein assay (Sigma Aldrich). A total of 50 μg of protein of each sample was used for analysis. Samples were then boiled in electrophoresis sample buffer and placed on 6%-15% sodium dodecyl sulfate-polyacrylamide gel electrophoresis (SDS-PAGE) gels, depending on the molecular weight of the proteins to be analyzed. Briefly, after electrophoresis, proteins in gels were transferred to polyvinylidene difluoride membranes (Millipore Corporation). Membranes were blocked in Tris-buffered saline with Tween (TBST) (100 mM Tris [pH 7.5], 150 mM NaCl, 0.05% Tween 20) containing 1% of bovine serum albumin for 1 h and then incubated overnight with the corresponding antibody. […]

[3] = system: tyrosine and serine/threonine kinases; assay: Biochemical kinase assays
animal models = assay: Studies in animal models; conditions: in vivo

SMILES: C[C@]12O[C@H](C[C@@H](O)[C@H]1O)n1c3ccccc3c3c4c(c5c6ccccc6n2c5c31)C(=O)NC4=O [Formula (III)]
- percent inhibition of cell proliferation at 0.1 µM (HS578T cells; Formula (III) 100 nM alone (Table 14)): 76.2%
- percent inhibition of cell proliferation at 0.1 µM (HS578T cells; Formula (III) 100 nM alone (Table 15)): 93.5%
- percent inhibition of cell proliferation at 0.12 µM (HS578T cells; Formula (III) 120 nM alone (Table 12)): 74.9%
- percent inhibition of cell proliferation at 0.12 µM (HS578T cells; Formula (III) 120 nM alone): 74.9%
- percent inhibition of cell proliferation at 0.18 µM (HS578T cells; Formula (III) 180 nM alone (Table 12)): 67.5%
- percent inhibition of cell proliferation at 0.18 µM (HS578T cells; Formula (III) 180 nM alone): 67.5%
- percent inhibition of cell proliferation at 0.2 µM (HS578T cells; Formula (III) 200 nM alone (Table 13)): 67.8%
- percent inhibition of cell proliferation at 0.2 µM (HS578T cells; Formula (III) 200 nM alone (Table 14)): 72.4%
- percent inhibition of cell proliferation at 0.2 µM (HS578T cells; Formula (III) 200 nM alone (Table 15)): 77.6%
- percent inhibition of cell proliferation at 0.24 µM (HS578T cells; Formula (III) 240 nM alone (Table 12)): 50.8%
- percent inhibition of cell proliferation at 0.24 µM (HS578T cells; Formula (III) 240 nM alone): 50.8%
- percent inhibition of cell proliferation at 0.26 µM (HS578T cells; Formula (III) 260 nM alone (Table 13)): 59.9%
- percent inhibition of cell proliferation at 0.3 µM (HS578T cells; Formula (III) 300 nM alone (Table 12)): 46.8%
- percent inhibition of cell proliferation at 0.3 µM (HS578T cells; Formula (III) 300 nM alone (Table 13)): 52.2%
- percent inhibition of cell proliferation at 0.3 µM (HS578T cells; Formula (III) 300 nM alone (Table 14)): 66.3%
- percent inhibition of cell proliferation at 0.3 µM (HS578T cells; Formula (III) 300 nM alone (Table 15)): 72.3%
- percent inhibition of cell proliferation at 0.3 µM (HS578T cells; Formula (III) 300 nM alone): 46.8%
- percent inhibition of cell proliferation at 0.38 µM (HS578T cells; Formula (III) 380 nM alone (Table 13)): 48.9%
- percent inhibition of cell proliferation at 0.4 µM (HS578T cells; Formula (III) 400 nM alone (Table 14)): 57.4%
- percent inhibition of cell proliferation at 0.4 µM (HS578T cells; Formula (III) 400 nM alone (Table 15)): 66.6%
- diameter of spherical structures in matrigel [1]: strongly decreased the diameter of these spheres
- phosphorylation of AKT, p70 S6 and STAT3 [2]: inhibits components of the PI3K/mTOR/AKT and JAK/STAT pathway
- concentration range of kinase affinity and inhibition [3]: nanomolar and subnanomolar range
- toxicities in animal models (animal models): no evidence of toxicities

Source: patent publication US9808469B2, “Antitumor activity of multi-kinase inhibitors in triple negative breast cancer” (ENTRECHEM, S.L, priority 2014, dated 2017)
